The values that follow come from PubChem BioAssay (NCI).

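Interpolation was linear, between the two tested concentrations surrounding the appropriate level; five concentrations were tested over 48 hours in 96-well plates. GI50 marks 50% less growth. Definition used: TGI = concentration required for complete inhibition of growth.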

Test systems include SF-268 CNS; UO-31 renal; A549 NSCLC; OVCAR-3 ovarian; SNB-19 CNS; SR leukemia; CCRF-CEM leukemia; MDA-MB-231 breast; SK-MEL-5 melanoma; BT-549 breast.
Assay in all cases: NCI-60 cell line screen, 48 h

As to `CCCCCCCCCCCCCCCC(=O)NS(=O)(=O)OC[C@H]1O[C@@H](n2cnc3c(N)ncnc32)[C@H](O)[C@@H]1O`, the GI50 in the experiment with SF-268 CNS was less than 0.0481 µM; with UO-31 renal, 0.339 µM; with A549 NSCLC, 1.67 µM; in the experiment with SNB-19 CNS, 0.0191 µM; in the experiment on SR leukemia, less than 0.021 µM; in the experiment on MDA-MB-231 breast it was 0.381 µM. In the experiment with SK-MEL-5 melanoma, the GI50 is 0.234 µM. The TGI in the experiment with SF-268 CNS came out at 1.28 µM; in the experiment on UO-31 renal, 1.33 µM; in the experiment with A549 NSCLC, 3.82 µM; in the experiment with OVCAR-3 ovarian it was 0.124 µM; in the experiment on SNB-19 CNS it was 0.157 µM; with SR leukemia it was 4.38 µM. The TGI is 10.6 µM in the experiment on CCRF-CEM leukemia, 1.71 µM in the experiment on MDA-MB-231 breast and 0.571 µM with SK-MEL-5 melanoma.

`C[n+]1cccc(NC(=O)c2ccc3ccc4ccc(C(=O)Nc5ccc[n+](C)c5)nc4c3n2)c1`: the GI50 in the experiment on BT-549 breast was 24 µM; with SF-268 CNS, 3.82 µM; in the experiment with UO-31 renal it was more than 20.2 µM; with A549 NSCLC, 0.155 µM; in the experiment with OVCAR-3 ovarian, 4.3 µM; in the experiment with SNB-19 CNS it was 1.61 µM. The figures for the GI50 in the experiment on CCRF-CEM leukemia and with MDA-MB-231 breast were 5.56 µM and 2.41 µM, respectively. The TGI with BT-549 breast was more than 100 µM; with SF-268 CNS, 42.1 µM; in the experiment on UO-31 renal, more than 100 µM; with A549 NSCLC, more than 100 µM; with OVCAR-3 ovarian it was more than 100 µM; in the experiment with SNB-19 CNS it was more than 27 µM. In addition, the TGI with CCRF-CEM leukemia was more than 100 µM; in the experiment with MDA-MB-231 breast, more than 52.4 µM.

Take `O=C(c1ccccc1)n1cc(/C=C/[N+](=O)[O-])c2ccccc21`: the TGI in the experiment on SF-268 CNS is 52.3 µM; in the experiment on UO-31 renal it was 66.1 µM; with A549 NSCLC it was more than 100 µM; with OVCAR-3 ovarian it was more than 100 µM; in the experiment on SNB-19 CNS, 92.3 µM; in the experiment with SR leukemia it was 44.9 µM. Further, the TGI in the experiment with CCRF-CEM leukemia is 35.1 µM; in the experiment with SK-MEL-5 melanoma, more than 100 µM.

For the molecule `O=c1cccccc1[O-].O=c1cccccc1[O-].O=c1cccccc1[O-].[Nd+3]`, the TGI with UO-31 renal was more than 100 µM; in the experiment with A549 NSCLC, more than 100 µM; in the experiment with OVCAR-3 ovarian it was 38.2 µM; in the experiment on SNB-19 CNS it was more than 100 µM; in the experiment with CCRF-CEM leukemia, more than 100 µM; in the experiment with SK-MEL-5 melanoma it was more than 100 µM.

On to `CC1(C)CC[C@]23CC[C@]4(C)[C@H](CC[C@@H]5[C@@]6(C)CCCNC(C)(C)[C@@H]6CC[C@]54C)[C@H]2[C@H]1OC3`, for which the GI50 is 2.04 µM with SF-268 CNS; 1.56 µM in the experiment on UO-31 renal; 1.81 µM in the experiment with A549 NSCLC; 1.62 µM in the experiment with OVCAR-3 ovarian; 1.85 µM in the experiment with SNB-19 CNS; 1.49 µM with SR leukemia. The values for the GI50 in the experiment with CCRF-CEM leukemia, in the experiment on MDA-MB-231 breast and with SK-MEL-5 melanoma were 2.32 µM, 1.66 µM and 1.69 µM, respectively. Further, the TGI with SF-268 CNS is 5.31 µM; in the experiment with UO-31 renal, 3 µM; in the experiment on A549 NSCLC, 3.43 µM; in the experiment with OVCAR-3 ovarian it was 3.1 µM; with SNB-19 CNS it was 3.35 µM; with SR leukemia it was 4.12 µM. For the same molecule, the TGI in the experiment with CCRF-CEM leukemia turned out to be 6.73 µM; in the experiment with MDA-MB-231 breast it was 3.2 µM; in the experiment on SK-MEL-5 melanoma, 3.06 µM.

For the molecule `Cc1ccc2ncnc(N(C)C3CCCCC3)c2c1`, the GI50 in the experiment on SF-268 CNS is 23.7 µM; in the experiment on UO-31 renal, 24.5 µM; in the experiment on A549 NSCLC it was 16.1 µM; in the experiment on OVCAR-3 ovarian it was 23.3 µM; in the experiment on SNB-19 CNS it was 59.5 µM; with SR leukemia it was 17.4 µM. The GI50 is 34.7 µM with CCRF-CEM leukemia and more than 100 µM in the experiment with SK-MEL-5 melanoma. Moreover, the TGI with SF-268 CNS was 89.8 µM; with UO-31 renal, more than 100 µM; with A549 NSCLC, 44.2 µM; with OVCAR-3 ovarian, 54.5 µM; in the experiment with SNB-19 CNS, more than 100 µM; with SR leukemia, 44.9 µM. Moreover, the TGI in the experiment on CCRF-CEM leukemia and in the experiment on SK-MEL-5 melanoma was more than 100 µM each time.

Consider `CCCCCc1cc(/C=C2/N=C(c3ccc[nH]3)C=C2OC)[nH]c1C`, for which the TGI in the experiment on BT-549 breast was 0.292 µM; in the experiment on SF-268 CNS, 1.13 µM; in the experiment on UO-31 renal it was less than 0.0193 µM; in the experiment on A549 NSCLC, 1.19 µM; with OVCAR-3 ovarian, 0.469 µM; in the experiment on SNB-19 CNS it was 1.5 µM. Moreover, the TGI in the experiment with CCRF-CEM leukemia stood at 0.209 µM; in the experiment with MDA-MB-231 breast it was 0.0999 µM; with SK-MEL-5 melanoma it was 0.0422 µM.

On to `Cc1ccc(NC(=S)NNC(=S)Nc2ccc(C)cc2)cc1`, for which the GI50 in the experiment with BT-549 breast is more than 100 µM; in the experiment on SF-268 CNS, 6.05 µM; in the experiment with UO-31 renal it was 11.6 µM; in the experiment on A549 NSCLC, 6.03 µM; in the experiment on OVCAR-3 ovarian, 2.9 µM; with SNB-19 CNS it was 8.36 µM. Moreover, the values for the GI50 in the experiment with MDA-MB-231 breast and in the experiment with SK-MEL-5 melanoma were 65.4 µM and 4.36 µM, respectively. Moreover, the TGI is more than 100 µM in the experiment on BT-549 breast; more than 100 µM in the experiment with SF-268 CNS; more than 100 µM in the experiment on UO-31 renal; more than 100 µM in the experiment on A549 NSCLC; 7.51 µM in the experiment on OVCAR-3 ovarian; more than 100 µM in the experiment with SNB-19 CNS. In addition, the TGI in the experiment on MDA-MB-231 breast and in the experiment with SK-MEL-5 melanoma was more than 100 µM each time.

On to `Cc1ccccc1N(CCC#N)C1=NN(C(=O)CC(=O)Nc2ccc(Cl)cc2)C(c2ccccc2)C1` (stereo unspecified), for which the TGI in the experiment with SF-268 CNS, in the experiment with UO-31 renal, with A549 NSCLC, in the experiment with OVCAR-3 ovarian, in the experiment with SNB-19 CNS and with SR leukemia was more than 100 µM each time. The TGI with CCRF-CEM leukemia and with SK-MEL-5 melanoma was more than 100 µM throughout.

On to `CC(=O)Oc1ccc2c(=O)c(C(C)=O)coc2c1`, for which the TGI in the experiment with SF-268 CNS, in the experiment on UO-31 renal, with A549 NSCLC, in the experiment with OVCAR-3 ovarian, in the experiment with SNB-19 CNS and in the experiment on SR leukemia was more than 100 µM throughout. The TGI in the experiment with CCRF-CEM leukemia and in the experiment with SK-MEL-5 melanoma was more than 100 µM each time.

In the case of `CCCCCOC(=O)Nc1nc(=O)n(C2OC(C)C(O)C2O)cc1F` (stereo unspecified), the GI50 in the experiment on SF-268 CNS was more than 10000 µM; with UO-31 renal it was more than 10000 µM; in the experiment with SNB-19 CNS it was more than 10000 µM; in the experiment with CCRF-CEM leukemia it was more than 10000 µM; in the experiment on SK-MEL-5 melanoma it was 338 µM. Besides, the TGI in the experiment on SF-268 CNS, in the experiment on UO-31 renal, with SNB-19 CNS, in the experiment with CCRF-CEM leukemia and in the experiment on SK-MEL-5 melanoma was more than 10000 µM each time.
